Measurements taken from the supplement of paper PMC10307832.

Assays:
Test in all cases: relative viability (nuclei count vs DMSO), 5 days (fraction); higher = more cells survive
EHT 1864 + Alpelisib = compound: C1COCCN1CC2=CC(=O)C(=CO2)OCCCCCSC3=C4C=CC(=CC4=NC=C3)C(F)(F)F [EHT 1864] + Cc1nc(NC(=O)N2CCC[C@H]2C(N)=O)sc1-c1ccnc(C(C)(C)C(F)(F)F)c1 [Alpelisib] (partner 2 µM)
In short: (§1)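 Relative viability is defined as nuclei in treated wells over nuclei in vehicle wells. Duplicate plates were run and medians reported. Lung cancer cell lines in 1536-well plates were dosed by pin tool one day after seeding, with one drug or with a fixed anchor-drug dose plus five library-drug doses (not always all listed) in √10 steps, and nuclei were counted after 5 days.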

EHT 1864 + Decitabine = compound: C1COCCN1CC2=CC(=O)C(=CO2)OCCCCCSC3=C4C=CC(=CC4=NC=C3)C(F)(F)F [EHT 1864] + Nc1ncn([C@H]2C[C@H](O)[C@@H](CO)O2)c(=O)n1 [Decitabine] (partner 2 µM)
In short: as §1

EHT 1864 + Linsitinib = compound: C1COCCN1CC2=CC(=O)C(=CO2)OCCCCCSC3=C4C=CC(=CC4=NC=C3)C(F)(F)F [EHT 1864] + C[C@]1(O)C[C@@H](c2nc(-c3ccc4ccc(-c5ccccc5)nc4c3)c3c(N)nccn32)C1 [Linsitinib] (partner 1 µM)
In short: as §1

EHT 1864 + Pictilisib = compound: C1COCCN1CC2=CC(=O)C(=CO2)OCCCCCSC3=C4C=CC(=CC4=NC=C3)C(F)(F)F [EHT 1864] + CS(=O)(=O)N1CCN(Cc2cc3nc(-c4cccc5[nH]ncc45)nc(N4CCOCC4)c3s2)CC1 [Pictilisib] (partner 1 µM)
In short: as §1

Row | Cell Line | relative viability (EHT 1864 + Alpelisib; first compound 0.04 µM) | relative viability (EHT 1864 + Alpelisib; first compound 0.1265 µM) | relative viability (EHT 1864 + Alpelisib; first compound 0.4 µM) | relative viability (EHT 1864 + Alpelisib; first compound 1.265 µM) | relative viability (EHT 1864 + Alpelisib; first compound 4 µM) | relative viability (EHT 1864 + Decitabine; first compound 0.04 µM) | relative viability (EHT 1864 + Decitabine; first compound 0.1265 µM) | relative viability (EHT 1864 + Decitabine; first compound 0.4 µM) | relative viability (EHT 1864 + Decitabine; first compound 1.265 µM) | relative viability (EHT 1864 + Decitabine; first compound 4 µM) | relative viability (EHT 1864 + Linsitinib; first compound 0.04 µM) | relative viability (EHT 1864 + Linsitinib; first compound 0.1265 µM) | relative viability (EHT 1864 + Linsitinib; first compound 0.4 µM) | relative viability (EHT 1864 + Linsitinib; first compound 1.265 µM) | relative viability (EHT 1864 + Linsitinib; first compound 4 µM) | relative viability (EHT 1864 + Pictilisib; first compound 0.04 µM) | relative viability (EHT 1864 + Pictilisib; first compound 0.1265 µM) | relative viability (EHT 1864 + Pictilisib; first compound 0.4 µM) | relative viability (EHT 1864 + Pictilisib; first compound 1.265 µM) | relative viability (EHT 1864 + Pictilisib; first compound 4 µM)
1 | COR-L 105 | 0.906 | 1.06 | 1.03 | 0.969 | 0.841 | 0.781 | 0.578 | 0.574 | 0.786 | 0.637 | 0.889 | 0.963 | 0.906 | 1.12 | 0.848 | 0.424 | 0.461 | 0.462 | 0.414 | 0.378
2 | LK-2 | 1.19 | 0.972 | 1.07 | 1.14 | 0.499 | 0.292 | 0.312 | 0.169 | 0.333 | 0.265 | 0.543 | 0.527 | 0.538 | 0.623 | 0.724 | 0.614 | 0.487 | 0.591 | 0.479 | 0.661
3 | NCI-H727 | 0.623 | 0.593 | 0.524 | – | 0.567 | 0.98 | 0.639 | 0.85 | 0.811 | 0.914 | 0.272 | 0.366 | 0.349 | – | 0.319 | 0.482 | 0.353 | 0.419 | – | 0.458
4 | RERF-LC-KJ | 0.759 | 0.743 | 0.755 | 0.947 | 0.776 | 0.588 | 0.691 | 0.61 | 0.694 | 0.576 | 0.874 | 0.884 | 0.861 | 0.861 | 0.847 | 0.617 | 0.521 | 0.459 | 0.491 | 0.479
5 | NCI-H2023 | 0.513 | 0.597 | 0.564 | 0.694 | 0.546 | 0.213 | 0.212 | 0.223 | 0.259 | 0.176 | 0.586 | 0.717 | 0.612 | 0.656 | 0.602 | 0.244 | 0.208 | 0.223 | 0.212 | 0.271
6 | NCI-H322M | 0.763 | 0.747 | 0.821 | 0.81 | 0.959 | 0.659 | 0.692 | 0.698 | 0.679 | 0.724 | 0.89 | 0.806 | 0.98 | 0.878 | 0.968 | 0.519 | 0.514 | 0.533 | 0.529 | 0.572
7 | NCI-H1666 | 0.898 | 1.12 | 0.978 | 0.98 | 0.966 | 0.755 | 0.742 | 0.712 | 0.768 | 0.865 | 0.828 | 0.74 | 0.837 | 0.73 | 0.912 | 0.533 | 0.442 | 0.501 | 0.545 | 0.575
8 | NCI-H1648 | – | – | – | – | – | 0.564 | – | 0.471 | 0.502 | 0.643 | – | – | – | – | – | – | – | – | – | –
9 | NCI-H2087 | 0.929 | 1 | 0.902 | 1.1 | 0.802 | 0.253 | – | 0.267 | 0.287 | 0.3 | 0.88 | 0.865 | 0.796 | 0.729 | 0.68 | 0.942 | 0.698 | 0.952 | 0.72 | 0.97
10 | LU99A | 0.495 | 0.381 | 0.452 | 0.583 | 0.54 | 0.843 | 0.757 | 0.827 | 0.903 | 0.872 | 0.514 | 0.4 | 0.5 | 0.607 | 0.539 | 0.389 | 0.276 | 0.326 | 0.289 | 0.336
11 | HCC-366 | 0.426 | – | 0.492 | 0.401 | 0.285 | 0.338 | 0.324 | 0.331 | 0.333 | 0.326 | 0.647 | – | 0.699 | 0.598 | 0.522 | 0.137 | 0.146 | 0.128 | 0.149 | 0.138
12 | EKVX | 0.894 | 0.836 | 0.875 | 0.871 | 0.795 | 0.372 | 0.333 | 0.317 | 0.329 | 0.381 | 0.886 | 0.976 | 1.04 | 1.08 | 1.02 | 0.396 | 0.428 | 0.496 | 0.485 | 0.437
13 | NCI-H522 | – | – | – | – | – | 0.592 | 0.685 | 0.709 | 0.702 | 0.703 | – | – | – | – | – | – | – | – | – | –
14 | NCI-H1755 | 0.897 | 0.844 | 0.861 | 0.945 | 0.877 | 0.803 | 0.685 | 0.702 | 0.707 | 0.755 | 0.983 | 0.907 | 0.956 | 0.927 | 0.962 | 0.495 | 0.376 | 0.403 | 0.436 | 0.428
15 | NCI-H647 | 1.21 | 1.04 | 1.26 | 0.977 | 1.18 | 0.32 | 0.288 | 0.311 | 0.453 | 0.404 | 1.03 | 1.13 | 1.2 | 1.15 | 0.983 | 0.56 | – | 0.468 | 0.325 | 0.433
16 | LC-2-ad | 0.837 | – | 0.831 | 0.9 | 0.82 | 0.783 | 0.733 | 0.762 | 0.773 | 0.755 | 0.862 | – | 0.806 | 0.804 | 0.79 | 0.335 | – | 0.491 | 0.503 | 0.508
17 | NCI-H1944 | 0.828 | – | 0.805 | 0.803 | 0.984 | 0.43 | – | 0.429 | 0.433 | 0.417 | 1.28 | – | 1.21 | 1.25 | 1.25 | 0.355 | – | 0.344 | 0.359 | 0.312
18 | HCC-827 | 0.981 | 0.887 | 0.958 | 0.953 | 0.891 | 0.332 | 0.291 | 0.319 | 0.399 | 0.317 | 0.953 | 0.858 | 1.01 | 0.926 | 0.876 | 1.15 | 1.11 | 1 | 0.875 | 1.12
